ChEMBL document CHEMBL1148252, “Orally bioavailable small molecule ketoamide-based inhibitors of cathepsin K” (Bioorg Med Chem Lett, 2004)
Converted amounts (≈) assume the structure as drawn.

Key:
[1] = Tested for iv terminal half-life dosed as a solution in male Han Wistar rats; type: ADME, organism-based; conditions: rat, in vivo
[2] = Tested for equilibrium solubility in fasted state-simulated intestinal fluid at pH 6.8; type: ADME; conditions: fasted state-simulated intestinal fluid (FS-SIF)
[3] = Oral bioavailability in rat (male Wistar); type: ADME, organism-based; conditions: in vivo
[4] = Apparent permeability coefficient (Papp) for apical to basolateral flux was determined in MadinDarby Canine Kidney cells; type: ADME, Canis lupus familiaris; conditions: dog, MDCK
[5] = Steady state volume of distribution (Vsss) was determined; type: ADME, organism-based; conditions: in vivo; read-out: Vsss
[6] = Tested for the total clearance of the compound; type: ADME, organism-based; conditions: in vivo
[7] = Partition coefficient (logP); type: physicochemical; conditions: octanol/water

CCCC[C@H](NC(=O)OC(C(C)C)C(C)C)C(=O)C(=O)NCc1ccno1
half-life [1]: 52 min
solubility thermodynamic [2]: 63 µg/mL (≈ 165 µM)
bioavailability [3]: 32%
Papp A→B [4]: 41 ×10⁻⁶ cm/s
Vd [5]: 1.2 L/kg
clearance [6]: 29 mL/min/kg
logP [7]: 5

CCCC[C@H](NC(=O)OC(C(C)C)C(C)C)C(=O)C(=O)NCc1nnco1
half-life [1]: 21 min
solubility thermodynamic [2]: 150 µg/mL (≈ 392 µM)
bioavailability [3]: 16%
Papp A→B [4]: 51 ×10⁻⁶ cm/s
Vd [5]: 0.98 L/kg
clearance [6]: 33 mL/min/kg
logP [7]: 3.4

CCCC[C@H](NC(=O)OC(C(C)C)C(C)C)C(=O)C(=O)NCc1ccccn1
half-life [1]: 77 min
solubility thermodynamic [2]: 28 µg/mL (≈ 71.5 µM)
bioavailability [3]: 10%
Papp A→B [4]: 51 ×10⁻⁶ cm/s
Vd [5]: 0.24 L/kg
clearance [6]: 5.2 mL/min/kg

CCCC[C@H](NC(=O)OC(C(C)C)C(C)C)C(=O)C(=O)N[C@H](C)c1ccccc1
solubility thermodynamic [2]: 12 µg/mL (≈ 29.7 µM)
bioavailability [3]: 3.1%
Papp A→B [4]: 5.7 ×10⁻⁶ cm/s
Vd [5]: 1.9 L/kg
clearance [6]: 8.7 mL/min/kg
logP [7]: 7.3

CCCC[C@H](NC(=O)OC(C(C)C)C(C)C)C(=O)C(=O)N[C@H]1CCCNC1=O
half-life [1]: 220 min
solubility thermodynamic [2]: 350 µg/mL (≈ 880 µM)
bioavailability [3]: 20%
Papp A→B [4]: 31 ×10⁻⁶ cm/s
Vd [5]: 1.6 L/kg
clearance [6]: 44 mL/min/kg
logP [7]: 4.4

CCCC[C@H](NC(=O)OC(C(C)C)C(C)C)C(=O)C(=O)NCc1ccncc1
half-life [1]: 240 min
solubility thermodynamic [2]: 62 µg/mL (≈ 158 µM)
bioavailability [3]: 5.2%
Vd [5]: 0.09 L/kg
clearance [6]: 7.1 mL/min/kg

CNC(=O)NCCCC[C@H](NC(=O)OC(C(C)C)C(C)C)C(=O)C(=O)N[C@H](C)c1ccccc1
half-life [1]: 260 min
solubility thermodynamic [2]: 32 µg/mL (≈ 67.1 µM)
bioavailability [3]: 10%
Vd [5]: 1.5 L/kg
clearance [6]: 24 mL/min/kg
logP [7]: 5.5

CCCC[C@H](NC(=O)OC(C(C)C)C(C)C)C(=O)C(=O)NCc1cncs1
half-life [1]: 150 min
solubility thermodynamic [2]: 51 µg/mL (≈ 128 µM)
bioavailability [3]: 55%
Papp A→B [4]: 48 ×10⁻⁶ cm/s
Vd [5]: 1.3 L/kg
clearance [6]: 28 mL/min/kg
logP [7]: 5.3
